Laboratory results taken from ChEMBL document CHEMBL3871296, “Phytochemical and cytotoxic studies on the roots of Euphorbia fischeriana” (Bioorg Med Chem Lett, 2017).

Columns and labels:
[1] = Cytotoxicity against human Hep3B cells assessed as cell growth inhibition by MTT assay; assay type: functional, cell-based, Hep 3B2
[2] = Cytotoxicity against human A549 cells assessed as cell growth inhibition by MTT assay; assay type: functional, cell-based

In the case of `CC1(C)OC[C@@]2(C[C@@]34CC[C@H]5C(C)(C)C(=O)CC[C@]5(C)[C@H]3CC[C@H]2C4)O1`, the IC50 [1] is reported as 8.15 µM and the IC50 [2] is reported as > 100 µM.
For `CC1(C)[C@H](O)CC[C@]2(C)[C@@H]1CC[C@@]13CC[C@@H](C[C@@H]12)[C@](O)(CO)C3`, the IC50 [1] was > 100 µM and the IC50 [2] was > 100 µM.
In the case of `CC1(C)CC[C@]2(C)CC[C@]3(C)C(=CC=C4[C@@]5(C)C[C@@H](O)[C@H](O)C(C)(C)[C@@H]5CC[C@]43C)[C@@H]2C1`, the IC50 [1] is reported as 12.5 µM and the IC50 [2] is reported as 11.9 µM.
Molecule `CCCCCCCCCCCCCCCC(=O)O[C@@]12C[C@@H](C)[C@@]3(O)[C@@H](C=C(C=O)C[C@]4(O)C(=O)C(C)=C[C@@H]34)[C@@H]1C2(C)C` has an IC50 [1] of 12 µM and an IC50 [2] of 9.38 µM.
For `OCC(O)C(O)C(O)c1cncc(-c2ccco2)n1` (stereo not drawn), the IC50 [1] was > 100 µM and the IC50 [2] was > 100 µM.
In the case of `C=C1C[C@@]23CC[C@@H]4C(C)(C)[C@H](O)CC[C@@]4(C)[C@H]2C[C@@H]1CC3=O`, the IC50 [1] is reported as > 100 µM and the IC50 [2] is reported as > 100 µM.
For `CC1(C)C(=O)CC[C@]2(C)[C@@H]1CC[C@]13C[C@H](CO)[C@@H](CC[C@H]12)C3`, the IC50 [1] was > 100 µM and the IC50 [2] was > 100 µM.
Work on `O=c1[nH]cc(F)c(=O)[nH]1` [FLUOROURACIL] yielded an IC50 [1] of 9.36 µM and an IC50 [2] of 16.6 µM.
`C=C(C)[C@@H]1CC[C@]2(C)CC[C@]3(C)[C@H](CC[C@@H]4[C@@]5(C)CC[C@H](OC(C)=O)C(C)(C)[C@@H]5CC[C@]43C)[C@@H]12` [LUPENYL ACETATE] showed an IC50 [1] of 18.7 µM and an IC50 [2] of 29.8 µM.
